Source: patent publication US12365687B2 (Hoffmann-La Roche Inc., priority 2021, dated 2025)

Experiments:
[1] = target: human GABAA α5β2γ1 receptor (Homo sapiens (Human), UniProt P31644+Q8N1C3); test: Radioligand binding assay for γ1-containing GABAA subtypes, [3H]RO7239181 competition (α5β2γ1)
[2] = target: human GABAA α2β2γ1 receptor (Homo sapiens (Human), UniProt P47869+Q8N1C3); test: Radioligand binding assay for γ1-containing GABAA subtypes, [3H]RO7239181 competition (α2β2γ1)
[3] = target: human GABAA α1β2γ1 receptor (Homo sapiens (Human), UniProt P14867+Q8N1C3); test: Radioligand binding assay for γ1-containing GABAA subtypes, [3H]RO7239181 competition (α1β2γ1)
Method: The affinity of compounds at GABAA γ1 subunit-containing receptors was measured by competition for [^3H]RO7239181 (67.3 Ci/mmol; Roche) binding to membranes from HEK293F cells (ThermoFisher R79007) expressing human (transiently transfected) receptors of composition α5β2γ1, α2β2γ1, α1β2γ1.
Harvested pellets from HEK293F cells expressing the different GABAA receptor subtypes were resuspended in Mannitol Buffer pH 7.2-7.4 (Mannitol 0.29 M, Triethylamine 10 mM, Acetic acid 10 mM, EDTA 1 mM plus protease inhibitors (20 tablets Complete, Roche Diagnostics Cat. No. 05 056 489 001 per liter)), washed two times and then resuspended at 1:10 to 1:15 dilution in the same buffer. Cell disruption was performed by stirring the suspension in a Parr vessel #4637 at 435 psi for 15 minutes, and then the suspensions were centrifuged at 1000×g for 15 minutes at 4° C. (Beckman Avanti J-HC; rotor JS-4.2). The supernatant (S1) was transferred in a 2 l Schott flask and the pellet (P1) was resuspended with Mannitol Buffer up to 175 ml. The resuspended pellet was transferred into a 250 ml Corning centrifugal beaker and centrifuged at 1500×g for 10 minutes at 4° C. (Beckman Avanti J-HC; rotor JS-4.2). The supernatant (S1) was then transferred in the 2 l Schott flask and the pellet was discarded. The supernatants (S1) were centrifuged in 500 ml Beckman polypropylene centrifugal beaker at 15′000×g for 30 minutes at 4° C. (Beckman Avanti J-20 XP; rotor JLA-10.500). The pellet (P2) was resuspended with Mannitol Buffer 1:1 and frozen at −80° C. The supernatant (S2) was centrifuged in 100 ml Beckman polypropylene centrifugal tubes at 48000×g for 50 minutes at 4° C. (Beckman Avanti J-20 XP; rotor JA-18). The supernatant (S3) was discarded and the pellet (P3) was resuspended with 1:1 Mannitol Buffer. The P2 and P3 protein concentration was determined with the BIORAD Standard assay method with bovine serum albumin as standard and measured on the NANO-Drop 1000. The membrane suspension was aliquots (500 μl per tube) and stored at −80° C. until required.
Membrane homogenates were resuspended and polytronised (Polytron PT1200E Kinematica AG) in Potassium Phosphate 10 mM, KCl 100 mM binding buffer at pH 7.4 to a final assay concentration determined with a previous experiment.
Assays were incubated to equilibrium for 1 hour at 4° C. and then, membranes were filtered onto unifilter (96-well white microplate with bonded GF/C filters preincubated 20-50 minutes in 0.3% Polyethylenimine) with a Filtermate 196 harvester (Packard BioScience) and washed 4 times with cold Potassium Phosphate 10 mM pH 7.4, KCl 100 mM binding buffer. After anhydrousing, filter-retained radioactivity was detected by liquid scintillation counting. Ki values were calculated using Excel-Fit (Microsoft) and are the means of two determinations.

[4] = target: human GABAA α1β3γ2 receptor (Homo sapiens (Human), UniProt P14867+P18507); test: Radioligand binding assay for γ2-containing GABAA subtypes, [3H]Flumazenil competition (α1β3γ2); details: for γ2/γ1 Selectivity Ratio: Ki α1β3γ2 (nM)/Ki α2β2γ1 (nM); for LogSel: Log[Ki α1β3γ2 (nM)/Ki α2β2γ1 (nM)]
[5] = target: α2β2γ1 GABAA receptor subtype (Homo sapiens (Human), UniProt P47869+Q8N1C3); test: Two-electrode voltage clamp electrophysiology in Xenopus oocytes expressing GABAA receptors (modulation of GABA EC20 current); format: cell-based; details: for Efficacy (GABA)%: % modulation of GABA EC20 = 100*(Fold increase-1), α2β2γ1 oocytes, compound at approx. 30-fold Ki; for Fold increase h-GABA-A α2β2γ1 oocyte @ 30-fold Ki: Xenopus oocytes expressing α2β2γ1, compound at approx. 30-fold its Ki α2β2γ1, GABA EC20 current
Outline: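 Two-electrode voltage clamp at −80 mV, room temperature, 3-5 days after mRNA injection into oocytes. GABA applied at EC20 for 1.5 min, twice, with compound during second application; at least 3 oocytes per concentration. Efficacy = extremum of point-by-point current ratio, expressed as 100×(fold increase−1).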

[6] = Ki h-GABAA α2β2γ1, [3H]RO7239181 competition binding, human GABAA α2β2γ1
[7] = Ki h-GABAA α2β2γ1, displacement of [3H]RO7239181, membranes of HEK293F cells expressing human receptors, means of two determinations

| Structure (SMILES) | Ki [1] [nM] | Ki [2, 6] [nM] | Ki [2, 7] [nM] | Ki [3] [nM] | Ki [4] [nM] | γ2/γ1 Selectivity Ratio [4] | LogSel [4] | Efficacy (GABA)% [5] [%] | Fold increase h-GABA-A α2β2γ1 oocyte @ 30-fold Ki [5] |
| --- | --- | --- | --- | --- | --- | --- | --- | --- | --- |
| COC1CN(C(=O)c2cn3c(n2)CN=C(c2ccccc2F)c2c-3ccc(Cl)c2Cl)C1 [Example 1, (7,8-dichloro-6-(2-fluorophenyl)-4H-benzo[f]imidazo[1,2-a][1,4]diazepin-2-yl)(3-methoxyazetidin-1-yl)methanone] | 3.19 | 25 | 25 | 35.1 | 638 | 25.5 | 1.41 | 77 | 1.77 |
| C[C@@H]1N=C(c2c(F)cccc2F)c2c(ccc(Cl)c2Cl)-n2nc(C(=O)N3CCC3)nc21 [Example 14, azetidin-1-yl-[(4S)-7,8-dichloro-6-(2,6-difluorophenyl)-4-methyl-4H-[1,2,4]triazolo[1,5-a][1,4]benzodiazepin-2-yl]methanone] | 1.11 | 7.1 | 7.1 | 8.5 | 773 | 108.2 | 2.03 | 57 | 1.57 |
| COC1CN(C(=O)c2nc3n(n2)-c2ccc(Cl)c(Cl)c2C(c2c(F)cccc2F)=N[C@H]3C)C1 [Example 16, [(4S)-7,8-dichloro-6-(2,6-difluorophenyl)-4-methyl-4H-[1,2,4]triazolo[1,5-a][1,4]benzodiazepin-2-yl]-(3-methoxyazetidin-1-yl)methanone] | 1.2 | 5.2 | 5.2 | 9.2 | 571 | 109.6 | 2.04 | 52 | 1.52 |
| Cc1nc2n(n1)-c1ccc(Cl)c(Cl)c1C(c1c(F)cccc1F)=N[C@H]2C [Example 21, (4S)-7,8-dichloro-6-(2,6-difluorophenyl)-2,4-dimethyl-4H-[1,2,4]triazolo[1,5-a][1,4]benzodiazepine] | 0.69 | 4.4 | 4.43 | 8.3 | 244 | 55.0 | 1.74 | 67 | 1.67 |
| COC1CN(C(=O)c2nc3n(n2)-c2ccc(C(F)(F)F)c(Cl)c2C(c2c(F)cccc2F)=N[C@H]3C)C1 [Example 23] | 1.63 | 11.8 | 11.8 | 29 | 1140 | 96.8 |  | 63 |  |
| C[C@@H]1N=C(c2c(F)cccc2F)c2c(ccc(C(F)(F)F)c2Cl)-n2nc(C(=O)N3CCC3)nc21 [Example 26, azetidin-1-yl-[(4S)-7-chloro-6-(2,6-difluorophenyl)-4-methyl-8-(trifluoromethyl)-4H-[1,2,4]triazolo[1,5-a][1,4]benzodiazepin-2-yl]methanone] | 2.48 | 8.6 | 8.6 | 38.1 | 1840 | 213.1 | 2.33 | 75 | 1.75 |
| C[C@@H]1N=C(c2c(F)cccc2F)c2c(ccc(Cl)c2Cl)-n2nc(C(=O)N3CCS(=O)(=O)CC3)nc21 [Example 36, [(4S)-7,8-dichloro-6-(2,6-difluorophenyl)-4-methyl-4H-[1,2,4]triazolo[1,5-a][1,4]benzodiazepin-2-yl]-(1,1-dioxo-1,4-thiazinan-4-yl)methanone] | 0.95 | 3.5 | 3.46 | 8.25 | 778 | 224.7 | 2.35 | 71 | 1.71 |
| C[C@@H]1N=C(c2c(F)cccc2F)c2c(ccc(Cl)c2Cl)-n2nc(C(=O)NCCO)nc21 [Example 54, (4S)-7,8-dichloro-6-(2,6-difluorophenyl)-N-(2-hydroxyethyl)-4-methyl-4H-[1,2,4]triazolo[1,5-a][1,4]benzodiazepine-2-carboxamide] | 0.97 | 4.4 | 4.38 | 15.2 | 581 | 132.7 | 2.12 | 80 | 1.80 |
| C[C@@H]1N=C(c2c(F)cccc2F)c2c(ccc(C(F)(F)F)c2Cl)-n2nc(C(=O)N3CC(O)C3)nc21 [Example 58, (3-hydroxyazetidin-1-yl)-[(4S)-7-chloro-6-(2,6-difluorophenyl)-4-methyl-8-(trifluoromethyl)-4H-[1,2,4]triazolo[1,5-a][1,4]benzodiazepin-2-yl]methanone] | 2.3 | 7 | 7 | 23.9 | 1090 | 156.8 | 2.20 | 112 | 2.12 |
| C[C@@H]1N=C(c2ncccc2F)c2c(ccc(C(F)(F)F)c2Cl)-n2nc(C(=O)N3CCC3)nc21 [Example 85, azetidin-1-yl-[(4S)-7-chloro-6-(3-fluoro-2-pyridyl)-4-methyl-8-(trifluoromethyl)-4H-[1,2,4]triazolo[1,5-a][1,4]benzodiazepin-2-yl]methanone] | 8.51 | 60.9 | 60.9 | 224 | 8860 | 145.5 | 2.16 | 140 | 2.40 |
| COC1CN(C(=O)c2nc3n(n2)-c2ccc(C(F)(F)F)c(Cl)c2C(c2ncccc2F)=N[C@H]3C)C1 [Example 103, [(4S)-7-chloro-6-(3-fluoro-2-pyridyl)-4-methyl-8-(trifluoromethyl)-4H-[1,2,4]triazolo[1,5-a][1,4]benzodiazepin-2-yl]-(3-methoxyazetidin-1-yl)methanone] | 9.87 | 25.4 | 25.3 | 178 | > 30000 | 1183.4 | 3.07 | 113 | 2.13 |
| C[C@@H]1N=C(c2c(F)cccc2F)c2c(ccc(C(F)(F)F)c2Cl)-n2nc(C(=O)NCCF)nc21 [Example 106, (4S)-7-chloro-6-(2,6-difluorophenyl)-N-(2-fluoroethyl)-4-methyl-8-(trifluoromethyl)-4H-[1,2,4]triazolo[1,5-a][1,4]benzodiazepine-2-carboxamide] | 2.94 | 22.6 | 22.6 | 104 | 4190 | 185.1 | 2.27 | 90 | 1.90 |
